Patent US7491710B2 (priority 2003, dated 2009)
Like-named read-outs stand apart in the source and are kept apart here.

How the values were obtained:
Test in all cases: biochemical
Aurora2 kinase = Aurora2 kinase (Homo sapiens, UniProt O14965)
CDK2/cyclin E = CDK2/cyclin E (Homo sapiens, UniProt P24941)
human FAK = human FAK (Homo sapiens, UniProt Q05397)
human KDR enzyme = human KDR enzyme (Homo sapiens, UniProt P35968)
human Tie2 = human Tie2 (Homo sapiens, UniProt Q02763)
Sequence of human Tie2 (Q02763 776-1124): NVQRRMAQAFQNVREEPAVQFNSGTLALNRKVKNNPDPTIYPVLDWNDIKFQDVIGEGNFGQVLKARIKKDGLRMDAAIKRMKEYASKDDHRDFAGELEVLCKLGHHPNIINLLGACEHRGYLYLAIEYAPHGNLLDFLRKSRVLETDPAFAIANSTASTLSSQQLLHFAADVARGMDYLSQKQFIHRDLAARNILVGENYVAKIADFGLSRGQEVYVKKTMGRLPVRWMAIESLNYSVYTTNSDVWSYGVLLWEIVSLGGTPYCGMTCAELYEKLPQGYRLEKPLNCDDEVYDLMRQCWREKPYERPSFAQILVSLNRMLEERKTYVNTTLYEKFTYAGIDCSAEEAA

Sequence of Aurora2 kinase (O14965 whole entry): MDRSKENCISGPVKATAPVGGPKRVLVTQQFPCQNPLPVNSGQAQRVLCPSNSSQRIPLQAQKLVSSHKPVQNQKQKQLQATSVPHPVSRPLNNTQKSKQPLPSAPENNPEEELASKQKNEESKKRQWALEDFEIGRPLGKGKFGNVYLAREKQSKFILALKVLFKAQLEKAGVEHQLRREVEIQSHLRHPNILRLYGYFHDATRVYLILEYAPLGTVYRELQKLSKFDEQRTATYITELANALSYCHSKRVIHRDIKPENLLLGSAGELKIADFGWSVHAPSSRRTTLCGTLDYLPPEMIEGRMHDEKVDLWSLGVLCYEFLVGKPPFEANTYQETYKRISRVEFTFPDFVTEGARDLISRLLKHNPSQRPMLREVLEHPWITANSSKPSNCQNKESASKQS
Sequence of human FAK (Q05397 whole entry): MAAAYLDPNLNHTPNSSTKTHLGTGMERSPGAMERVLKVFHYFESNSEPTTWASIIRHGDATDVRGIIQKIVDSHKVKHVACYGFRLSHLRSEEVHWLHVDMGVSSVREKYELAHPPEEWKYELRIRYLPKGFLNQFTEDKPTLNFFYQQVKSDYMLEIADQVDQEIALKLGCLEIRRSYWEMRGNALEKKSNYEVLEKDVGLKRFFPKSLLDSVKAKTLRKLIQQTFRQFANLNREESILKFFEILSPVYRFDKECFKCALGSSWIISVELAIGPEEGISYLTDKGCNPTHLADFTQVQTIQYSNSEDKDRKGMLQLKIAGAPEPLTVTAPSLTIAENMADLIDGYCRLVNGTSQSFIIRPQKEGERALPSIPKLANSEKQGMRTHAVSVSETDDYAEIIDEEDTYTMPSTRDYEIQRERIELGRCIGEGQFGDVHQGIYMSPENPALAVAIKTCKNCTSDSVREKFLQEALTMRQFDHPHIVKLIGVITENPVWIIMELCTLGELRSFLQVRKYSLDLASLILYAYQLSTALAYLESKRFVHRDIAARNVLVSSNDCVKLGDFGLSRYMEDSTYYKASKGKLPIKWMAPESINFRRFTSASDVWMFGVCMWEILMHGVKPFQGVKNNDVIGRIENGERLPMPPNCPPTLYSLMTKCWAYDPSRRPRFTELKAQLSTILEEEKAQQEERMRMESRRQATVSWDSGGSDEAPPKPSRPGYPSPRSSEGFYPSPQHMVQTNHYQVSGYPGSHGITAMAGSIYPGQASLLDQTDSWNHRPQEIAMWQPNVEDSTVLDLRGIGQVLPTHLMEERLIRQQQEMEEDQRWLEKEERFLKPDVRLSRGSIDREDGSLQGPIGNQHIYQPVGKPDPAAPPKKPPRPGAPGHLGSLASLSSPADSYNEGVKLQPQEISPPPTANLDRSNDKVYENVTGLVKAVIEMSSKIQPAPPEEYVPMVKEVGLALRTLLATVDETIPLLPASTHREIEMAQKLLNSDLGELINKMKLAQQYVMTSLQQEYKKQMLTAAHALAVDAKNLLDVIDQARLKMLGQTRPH
Sequence of human KDR enzyme (P35968 786-1356): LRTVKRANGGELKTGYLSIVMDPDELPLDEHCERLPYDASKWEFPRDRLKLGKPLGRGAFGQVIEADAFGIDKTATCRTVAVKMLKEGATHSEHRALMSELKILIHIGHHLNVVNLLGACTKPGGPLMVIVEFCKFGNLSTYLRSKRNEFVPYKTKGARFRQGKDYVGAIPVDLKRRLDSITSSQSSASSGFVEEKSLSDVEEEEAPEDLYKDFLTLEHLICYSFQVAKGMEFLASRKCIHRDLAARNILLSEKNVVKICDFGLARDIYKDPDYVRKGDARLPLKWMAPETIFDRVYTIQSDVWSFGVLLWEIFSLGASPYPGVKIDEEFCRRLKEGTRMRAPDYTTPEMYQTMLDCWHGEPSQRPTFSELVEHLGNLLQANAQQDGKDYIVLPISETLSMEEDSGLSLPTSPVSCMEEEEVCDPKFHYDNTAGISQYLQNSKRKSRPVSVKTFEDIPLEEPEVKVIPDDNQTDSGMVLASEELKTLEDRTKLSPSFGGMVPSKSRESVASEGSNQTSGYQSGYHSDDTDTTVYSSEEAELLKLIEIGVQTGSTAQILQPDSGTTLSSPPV

| Structure (SMILES) | IC50 (Aurora2 kinase) [nM] | IC50 (CDK2/cyclin E) [nM] | IC50 (human FAK) [nM] | IC50 (human KDR enzyme) [nM] | IC50 (human Tie2) [nM] | IC50 (Aurora2 kinase; read-out: Au2 IC50) [nM] | IC50 (CDK2/cyclin E; read-out: CDK2 IC50) [nM] |
| --- | --- | --- | --- | --- | --- | --- | --- |
| CP(=O)(Oc1ccc2[nH]nc(/C=C/c3ccccc3)c2c1)c1ccccc1 (stereo not drawn) [Example 01, Methylphenylphosphinic acid 3-((E)-styryl)-1H-indazol-5-yl ester] | 37 | 234 | 279 | 158 | 40 |  |  |
| O=P(Oc1ccc2[nH]nc(/C=C/c3ccccc3)c2c1)(c1ccccc1)c1ccccc1 [Example 02, Diphenylphosphinic acid 3-((E)-styryl)-1H-indazol-5-yl ester] | 75 | 991 | 3530 | 508 | 518 |  |  |
| CP(=O)(Oc1ccc2[nH]nc(-c3cc4ccccc4[nH]3)c2c1)c1ccccc1 (stereo not drawn) [Example 03, Methylphenylphosphinic acid 3-(1H-indol-2-yl)-1H-indazol-5-yl ester] | 20 | 142 | 816 | 310 | 3 |  |  |
| O=P(Oc1ccc2[nH]nc(-c3cc4ccccc4[nH]3)c2c1)(c1ccccc1)c1ccccc1 [Example 04, Diphenylphosphinic acid 3-(1H-indol-2-yl)-1H-indazol-5-yl ester] | 99 | 586 | 2900 | 1630 | 22 |  |  |
| CP(=O)(Oc1ccc2[nH]nc(-c3cc4cc(OCCN5CCOCC5)ccc4[nH]3)c2c1)c1ccccc1 (stereo not drawn) [Example 05, Methylphenylphosphinic acid 3-[5-(2-morpholin-4-ylethoxy)-1H-indol-2-yl]-1H-indazol-5-yl ester] | 15 | 394 | 48 | 141 | 11 |  |  |
| COP(=O)(Oc1ccc2[nH]nc(-c3cc4ccccc4[nH]3)c2c1)c1ccccc1 (stereo not drawn) [Example 06, Phenylphosphonic acid 3-(1H-indol-2-yl)-1-H-indazol-5-yl ester methyl ester] | 15 | 184 | 740 | 288 | 48 |  |  |
| CC(C)OP(=O)(Oc1ccc2[nH]nc(-c3cc4ccccc4[nH]3)c2c1)c1ccccc1 (stereo not drawn) [Example 07, Phenylphosphonic acid 3-(1H-indol-2-yl)-1H-indazol-5-yl ester isopropyl ester] | 24 | 959 | 9640 | 2050 | 162 |  |  |
| O=P(OCc1ccccc1)(Oc1ccc2[nH]nc(-c3cc4ccccc4[nH]3)c2c1)c1ccccc1 (stereo not drawn) [Example 08, Phenylphosphonic acid 3-(1H-indol-2-yl)-1H-indazol-5-yl ester benzyl ester] | 53 | 3700 | 8300 | 5400 | 130 |  |  |
| COP(=O)(Oc1ccc2[nH]ncc2c1)c1ccccc1 (stereo not drawn) [Example 10, Phenylphosphonic acid 1H-indazol-5-yl ester methyl ester] | 9130 | > 10000 | > 10000 |  | > 10000 |  |  |
| COP(=O)(Oc1ccc2[nH]nc(-c3ccc[nH]3)c2c1)c1ccccc1 (stereo not drawn) [Example 11, Phenylphosphonic acid methyl ester 3-(1H-pyrrol-2-yl)-1H-indazol-5-yl ester] | 90 | 199 |  | 1250 | 229 |  |  |
| COP(=O)(OC)c1ccc2[nH]nc(/C=C/c3ccccc3)c2c1 [Example 12, [3-((E)-styryl)-1H-indazol-5-yl]phosphonic acid dimethyl ester] | 140 | 290 |  | 2030 | 2310 |  |  |
| COP(=O)(O)c1ccc2[nH]nc(/C=C/c3ccccc3)c2c1 [Example 13, [3-((E)-styryl)-1H-indazol-5-yl]phosphonic acid monomethyl ester] | 69 |  |  |  |  |  |  |
| CCOP(=O)(OCC)c1ccc2[nH]nc(/C=C/c3ccccc3)c2c1 [Example 14, [3-((E)-styryl)-1H-indazol-5-yl]phosphonic acid diethyl ester] | 76 | 780 | 5880 | 1660 | 290 |  |  |
| COP(=O)(O)c1ccc2[nH]nc(-c3cc4ccccc4[nH]3)c2c1 [Example 15, [3-(1H-Indol-2-yl)-1H-indazol-5-yl]phosphonic acid monomethyl ester] | 108 | 2260 | > 10000 | > 10000 | 4080 |  |  |
| COP(=O)(O)c1ccc2[nH]nc(-c3cccs3)c2c1 [Example 16, (3-Thiophen-2-yl-1H-indazol-5-yl)phosphonic acid monomethyl ester] | 2200 | > 10000 | > 10000 | > 10000 | 2210 |  |  |
| COP(=O)(O)c1ccc2[nH]nc(-c3ccc[nH]3)c2c1 [Example 17, [3-(1H-Pyrrol-2-yl)-1H-indazol-5-yl]phosphonic acid monomethyl ester] | 770 |  |  |  |  |  |  |
| CP(C)(=O)Oc1ccc2[nH]nc(-c3cc4ccccc4[nH]3)c2c1 [Example 18, Dimethylphosphinic acid 3-(1H-indol-2-yl)-1H-indazol-5-yl ester] | 20 | 33 | 7570 | 228 | 33 |  |  |
| CCOP(=O)(Oc1ccc2[nH]nc(-c3cc4nc(OC)ccc4[nH]3)c2c1)c1ccccc1 (stereo not drawn) [Example 23, Phenylphosphonic acid ethyl ester 3-(5-methoxy-1H-pyrrolo[3,2-b]pyridin-2-yl)-1H-indazol-5-yl ester] | 24 | 249 |  | 442 | 30 |  |  |
| COc1ccc2[nH]c(-c3n[nH]c4ccc(OP(=O)(OC)c5ccccc5)cc34)cc2n1 (stereo not drawn) [Example 24, phenylphosphonic acid 3-(5-methoxy-1H-pyrrolo[3,2-b]pyridin-2-yl)-1H-indazol-5-yl ester methyl ester] | 24 | 142 |  | 364 | 22 |  |  |
| COP(=O)(Oc1ccc2[nH]nc(/C=C/c3ccccc3)c2c1)c1ccccc1 (stereo not drawn) [Example 25, Phenylphosphonic acid methyl ester 3-styryl-1H-indazol-5-yl ester] | 41 | 578 |  |  |  |  |  |
| COP(=O)(Oc1ccc2[nH]nc(-c3cc4ccccc4s3)c2c1)c1ccccc1 (stereo not drawn) [Example 26, Phenylphosphonic acid 3-benzo[b]thiophen-2-yl-1H-indazol-5-yl ester methyl ester] |  |  |  |  |  | 730 | 3240 |
| COP(=O)(Oc1ccc2[nH]nc(-c3cc4ccccc4s3)c2c1)c1ccccc1 (stereo not drawn) [Example 27, Phenylphosphonic acid 3-benzo[b]thiophen-2-yl-1H-indazol-5-yl ester methyl ester] | 134 | 7560 |  | 1880 | 353 |  |  |
| COP(=O)(Oc1ccc2[nH]nc(-c3cc4ccccc4[nH]3)c2c1)C1CCCCC1 (stereo not drawn) [Example 32, Cyclohexylphosphonic acid 3-(1H-indol-2-yl)-1H-indazol-5-yl ester methyl ester] | 26 | 1500 |  | 999 | 119 |  |  |
| O=P(O)(Oc1ccc2[nH]nc(-c3cc4ccccc4[nH]3)c2c1)c1ccccc1 [Example 33, Phenylphosphonic acid mono-[3-(1H-indol-2-yl)-1H-indazol-5-yl]ester] | 10 | 291 | 316 | 577 | 17 |  |  |
